# Results as given in PubChem BioAssay (NCI).
# “And” between values parts separate entries of the source, which are not always exact repeats. Identical values can stand only once.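 The compound was tested at five concentrations on cells cultured in 96-well plates, with a 48-hour exposure period. GI50 = concentration required for 50% inhibition of growth. At the TGI there is no net growth.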
# Legend:
# Test in all cases: DTP human tumour cell line panel, 48 h
# ACHN renal = test system: ACHN renal
# HOP-92 NSCLC = test system: HOP-92 NSCLC
# K-562 leukemia = test system: K-562 leukemia
# MALME-3M melanoma = test system: MALME-3M melanoma
# NCI-H522 lung = test system: NCI-H522 lung
# SN12C renal = test system: SN12C renal
# SNB-75 CNS = test system: SNB-75 CNS
# SW-620 colon = test system: SW-620 colon
# U251 CNS = test system: U251 CNS
# NCI-H460 lung = test system: NCI-H460 lung
smiles,measurement,setting,value
COC(=O)/C=C/c1cc2c(cc1-c1c(C(=O)O)cc(OC)c(OC)c1OC)OCO2,TGI,ACHN renal,> 10 µM
same,TGI,HOP-92 NSCLC,> 10 µM
same,TGI,K-562 leukemia,> 10 µM
same,TGI,MALME-3M melanoma,> 10 µM
same,TGI,NCI-H522 lung,> 10 µM
same,TGI,SN12C renal,> 10 µM
same,TGI,SNB-75 CNS,> 10 µM
same,TGI,SW-620 colon,> 10 µM
same,TGI,U251 CNS,> 10 µM
C[N+]1=C(/C=C\C=C\c2ccccc2)C(C)(C)c2ccccc21,GI50,ACHN renal,5.84 µM
same,TGI,ACHN renal,18.7 µM
same,GI50,HOP-92 NSCLC,2.35 µM
same,TGI,HOP-92 NSCLC,6.77 µM
same,GI50,K-562 leukemia,0.442 µM
same,TGI,K-562 leukemia,7.28 µM
same,GI50,MALME-3M melanoma,1.87 µM
same,TGI,MALME-3M melanoma,4.37 µM
same,GI50,NCI-H460 lung,4.44 µM
same,TGI,NCI-H460 lung,17.2 µM
same,GI50,NCI-H522 lung,0.863 µM
same,TGI,NCI-H522 lung,2.9 µM
same,GI50,SN12C renal,0.863 µM
same,TGI,SN12C renal,12.4 µM
same,GI50,SNB-75 CNS,3.73 µM
same,TGI,SNB-75 CNS,16.2 µM
same,GI50,SW-620 colon,1.38 µM
same,TGI,SW-620 colon,4.08 µM
same,GI50,U251 CNS,1.59 µM
same,TGI,U251 CNS,4.18 µM
CCOC(=O)c1[nH]c(COC(C)=O)c2c1CCCCCCCCCC2,TGI,HOP-92 NSCLC,> 100 µM
same,TGI,K-562 leukemia,> 100 µM
same,TGI,MALME-3M melanoma,> 100 µM
same,TGI,NCI-H460 lung,> 100 µM
same,TGI,NCI-H522 lung,> 100 µM
same,TGI,SN12C renal,> 100 µM
same,TGI,SNB-75 CNS,> 100 µM
same,TGI,SW-620 colon,> 100 µM
same,TGI,U251 CNS,> 100 µM
NC(N)=NS(=O)(=O)c1ccc(Nc2c3ccccc3nc3c(C(=O)Nc4ccc(S(N)(=O)=O)cc4)cccc23)cc1,TGI,ACHN renal,> 100 µM
same,TGI,HOP-92 NSCLC,> 100 µM
same,TGI,K-562 leukemia,> 100 µM
same,TGI,MALME-3M melanoma,> 100 µM
same,TGI,NCI-H460 lung,> 100 µM
same,TGI,NCI-H522 lung,68.7 µM
same,TGI,SN12C renal,> 100 µM
same,TGI,SNB-75 CNS,> 100 µM
same,TGI,SW-620 colon,> 100 µM
same,TGI,U251 CNS,> 100 µM
CCN1CCN(CC(=O)N2c3cccc4cccc(c34)N(C(=O)CN3CCN(CC)CC3)C2c2cn(-c3ccccc3)nc2-c2cccc([N+](=O)[O-])c2)CC1,GI50,ACHN renal,1.64 µM
same,TGI,ACHN renal,3.08 µM
same,GI50,HOP-92 NSCLC,0.671 µM
same,TGI,HOP-92 NSCLC,2.49 µM
same,GI50,MALME-3M melanoma,1.63 µM
same,TGI,MALME-3M melanoma,3.13 µM
same,GI50,NCI-H460 lung,1.51 µM
same,TGI,NCI-H460 lung,3.14 µM
same,GI50,SN12C renal,1.49 µM
same,TGI,SN12C renal,3.01 µM
same,GI50,SNB-75 CNS,1.13 µM
same,TGI,SNB-75 CNS,2.48 µM
same,GI50,SW-620 colon,1.73 µM
same,TGI,SW-620 colon,3.41 µM
same,GI50,U251 CNS,1.53 µM
same,TGI,U251 CNS,3.21 µM
O=Cc1c(O)c(C(=O)Nc2ccc3[nH]c(=O)[nH]c3c2)cc2ccccc12,TGI,ACHN renal,> 100 µM
same,TGI,HOP-92 NSCLC,> 100 µM
same,TGI,K-562 leukemia,> 100 µM
same,TGI,MALME-3M melanoma,> 100 µM
same,TGI,NCI-H460 lung,> 100 µM
same,TGI,NCI-H522 lung,> 100 µM
same,TGI,SN12C renal,> 100 µM
same,TGI,SNB-75 CNS,> 100 µM
same,TGI,SW-620 colon,> 100 µM
same,TGI,U251 CNS,> 100 µM
CC1(C)C2C=CC1C(=O)CC2 (stereo not drawn),TGI,ACHN renal,> 100 µM
same,TGI,HOP-92 NSCLC,> 100 µM
same,TGI,K-562 leukemia,> 100 µM
same,TGI,MALME-3M melanoma,> 100 µM
same,TGI,NCI-H460 lung,> 100 µM
same,TGI,NCI-H522 lung,> 100 µM
same,TGI,SNB-75 CNS,> 100 µM
same,TGI,SW-620 colon,> 100 µM
same,TGI,U251 CNS,> 100 µM
Cc1cc(N2CCOCC2)cc2[nH]c(-c3c(NC[C@@H](O)c4cccc(Cl)c4)cc[nH]c3=O)nc12,GI50,ACHN renal,2.84 µM
same,TGI,ACHN renal,80.2 µM
same,GI50,K-562 leukemia,2.94 µM
same,TGI,K-562 leukemia,13 µM
same,GI50,MALME-3M melanoma,1.68 µM
same,TGI,MALME-3M melanoma,14.8 µM
same,GI50,NCI-H460 lung,0.51 µM
same,TGI,NCI-H460 lung,11.2 µM
same,GI50,NCI-H522 lung,1.78 µM
same,TGI,NCI-H522 lung,6.18 µM
same,GI50,SN12C renal,0.798 µM
same,TGI,SN12C renal,12.7 µM
same,GI50,SNB-75 CNS,1.15 µM
same,TGI,SNB-75 CNS,2.47 µM
same,GI50,SW-620 colon,1.05 µM
same,TGI,SW-620 colon,11.2 µM
same,GI50,U251 CNS,1.65 µM
same,TGI,U251 CNS,4.38 µM
O=C(O)C1CC(O)CN1 (stereo not drawn),TGI,ACHN renal,> 100 µM
same,TGI,HOP-92 NSCLC,> 100 µM
same,TGI,K-562 leukemia,> 100 µM
same,TGI,MALME-3M melanoma,> 100 µM
same,TGI,NCI-H460 lung,> 100 µM
same,TGI,SN12C renal,> 100 µM
same,TGI,SNB-75 CNS,> 100 µM
same,TGI,SW-620 colon,> 100 µM
same,TGI,U251 CNS,> 100 µM
Cc1cc(C)cc(NC(N)=S)c1,TGI,ACHN renal,> 100 µM
same,TGI,HOP-92 NSCLC,> 100 µM
same,TGI,K-562 leukemia,> 100 µM
same,TGI,MALME-3M melanoma,> 100 µM
same,TGI,NCI-H460 lung,> 100 µM
same,TGI,NCI-H522 lung,> 100 µM
same,TGI,SN12C renal,> 100 µM
same,TGI,SNB-75 CNS,> 100 µM
same,TGI,SW-620 colon,18 µM
same,TGI,U251 CNS,> 100 µM
Cc1ccc(O)c(NC(=O)c2ccc(CNc3ccnc(C(F)(F)F)c3)cc2)c1,GI50,ACHN renal,3.66 µM
same,TGI,ACHN renal,> 100 µM
same,GI50,HOP-92 NSCLC,5.11 µM
same,TGI,HOP-92 NSCLC,29.8 µM
same,GI50,K-562 leukemia,1.54 µM
same,TGI,K-562 leukemia,17.9 µM
same,GI50,MALME-3M melanoma,2.53 µM
same,TGI,MALME-3M melanoma,22.1 µM
same,GI50,NCI-H460 lung,3.7 µM
same,TGI,NCI-H460 lung,21.9 µM
same,GI50,SN12C renal,4.23 µM
same,TGI,SN12C renal,> 100 µM
same,GI50,SNB-75 CNS,22.5 µM
same,TGI,SNB-75 CNS,90.3 µM
same,GI50,SW-620 colon,8.7 µM
same,TGI,SW-620 colon,42.4 µM
same,GI50,U251 CNS,23.5 µM
same,TGI,U251 CNS,> 100 µM
Oc1ccc2oc3ncc(Br)c(-c4ccccc4)c3c2c1,GI50,ACHN renal,> 100 µM
same,TGI,ACHN renal,> 100 µM
same,GI50,HOP-92 NSCLC,> 100 µM
same,TGI,HOP-92 NSCLC,> 100 µM
same,GI50,K-562 leukemia,> 100 µM
same,TGI,K-562 leukemia,> 100 µM
same,GI50,NCI-H460 lung,> 100 µM
same,TGI,NCI-H460 lung,> 100 µM
same,GI50,NCI-H522 lung,> 100 µM
same,TGI,NCI-H522 lung,> 100 µM
same,GI50,SW-620 colon,> 100 µM
same,TGI,SW-620 colon,> 100 µM
same,GI50,U251 CNS,> 100 µM
same,TGI,U251 CNS,> 100 µM
COc1cccc(NC(=O)/C(Cc2nc3ccccc3nc2C)=N/NC(=O)C[n+]2ccccc2)c1,TGI,ACHN renal,> 100 µM
same,TGI,K-562 leukemia,> 100 µM
same,TGI,MALME-3M melanoma,> 100 µM
same,TGI,NCI-H460 lung,> 100 µM
same,TGI,SN12C renal,> 100 µM
same,TGI,SNB-75 CNS,> 100 µM
same,TGI,SW-620 colon,25.6 µM
same,TGI,U251 CNS,39.8 µM
CC(C)OP(=O)(NC(=S)c1ccccc1)OC(C)C,TGI,ACHN renal,> 100 µM
same,TGI,HOP-92 NSCLC,> 100 µM
same,TGI,K-562 leukemia,> 100 µM
same,TGI,MALME-3M melanoma,> 100 µM
same,TGI,NCI-H460 lung,> 100 µM
same,TGI,SN12C renal,> 100 µM
same,TGI,SNB-75 CNS,> 100 µM
same,TGI,SW-620 colon,> 100 µM
same,TGI,U251 CNS,> 100 µM
COc1cc2c(cc1OC)C13CCN4CC5CCOC6CC(=O)N2C1C6C5CC43 (stereo not drawn),TGI,ACHN renal,> 100 µM
same,TGI,HOP-92 NSCLC,> 100 µM
same,TGI,MALME-3M melanoma,> 100 µM
same,TGI,NCI-H460 lung,> 100 µM
same,TGI,NCI-H522 lung,> 100 µM
same,TGI,SN12C renal,> 100 µM
same,TGI,SW-620 colon,> 100 µM
same,TGI,U251 CNS,> 100 µM
O=c1cccccc1[O-].O=c1cccccc1[O-].O=c1cccccc1[O-].[La+3],TGI,ACHN renal,> 100 µM
same,TGI,HOP-92 NSCLC,> 100 µM
same,TGI,K-562 leukemia,> 100 µM
same,TGI,MALME-3M melanoma,31.9 µM
same,TGI,NCI-H460 lung,> 100 µM
same,TGI,NCI-H522 lung,84.2 µM
same,GI50,SN12C renal,22.3 µM
same,TGI,SN12C renal,> 100 µM
same,TGI,SW-620 colon,> 100 µM
same,GI50,U251 CNS,11 µM
same,TGI,U251 CNS,76.2 µM
S=P(N1CC1)(N1CC1)N1CC1,GI50,ACHN renal,3.39 µM
same,TGI,ACHN renal,37.3 µM and 335 µM
same,GI50,HOP-92 NSCLC,25.2 µM and 168 µM
same,TGI,HOP-92 NSCLC,50.2 µM and 376 µM and 345 µM
same,GI50,K-562 leukemia,24.5 µM
same,TGI,K-562 leukemia,834 µM and 911 µM
same,GI50,NCI-H460 lung,0.588 µM
same,TGI,NCI-H460 lung,31.7 µM and 195 µM
same,GI50,NCI-H522 lung,15 µM and 125 µM
same,TGI,NCI-H522 lung,33.6 µM and 273 µM and 329 µM
same,GI50,SNB-75 CNS,20.4 µM and 186 µM
same,TGI,SNB-75 CNS,57.7 µM and 403 µM and 498 µM
COc1ccc(-c2ccc(-c3ccc(C(=N)N)o3)o2)cc1,GI50,ACHN renal,1.8 µM
same,TGI,ACHN renal,4.2 µM
same,GI50,K-562 leukemia,0.487 µM
same,TGI,K-562 leukemia,2.12 µM
same,GI50,MALME-3M melanoma,3.97 µM
same,TGI,MALME-3M melanoma,19.1 µM
same,GI50,NCI-H460 lung,1.17 µM
same,TGI,NCI-H460 lung,3.28 µM
same,GI50,NCI-H522 lung,1.09 µM
same,TGI,NCI-H522 lung,3.48 µM
same,GI50,SN12C renal,2.02 µM
same,TGI,SN12C renal,4.59 µM
same,GI50,SNB-75 CNS,1.47 µM
same,TGI,SNB-75 CNS,6.81 µM
same,GI50,SW-620 colon,0.532 µM
same,TGI,SW-620 colon,2.43 µM
same,GI50,U251 CNS,1.74 µM
same,TGI,U251 CNS,4.12 µM
